Experimental findings from US7767665B2, “1,3-benzothiazinone derivatives and use thereof” (Takeda Pharmaceutical Company Limited, priority 2001, dated 2010) are described below.

Where a name gives a salt, the structure may show the parent alone.

As usually defined, the melting point is the temperature of the solid-liquid transition. `Cn1ccnc1Sc1cccc(-c2nc(=O)c3ccccc3s2)n1` [Example 271, 2-{6-[(1-Methyl-1H-imidazol-2-yl)thio]-2-pyridyl}-4H-1,3-benzothiazine-4-one] displayed a melting point of 171.9 to 172.3 °C. As for `Cc1cccnc1-c1nc(=O)c2ccccc2s1` [Example 8, 2-(3-Methyl-2-pyridyl)-4H-1,3-benzothiazine-4-one], the figure is 149.9 to 151.6 °C; as for `O=c1nc(-c2cccc(-n3cccn3)n2)sc2ccccc12` [Example 196, 2-[6-(1H-Pyrazol-1-yl)-2-pyridyl]-4H-1,3-benzothiazine-4-one], 253 to 254 °C. To `O=C(O)/C=C/c1ccnc(-c2nc(=O)c3ccccc3s2)c1` [Example 310, (E)-3-[2-(4-Oxo-4H-1,3-benzothiazin-2-yl)-4-pyridyl]acrylic acid] belongs 284.3 to 285 °C. To `O=c1nc(-c2ccc(N3CCOCC3)nc2)sc2ccccc12` [Example 35, 2-[6-(4-Morpholino)-3-pyridyl]-4H-1,3-benzothiazine-4-one] belongs 232.6 to 234.4 °C; to `CC(C)(C)OC(=O)C[S+]([O-])c1cccc(-c2nc(=O)c3ccccc3s2)n1` (stereo not shown) [Example 278, tert-Butyl {[6-(4-oxo-4H-1,3-benzothiazin-2-yl)-2-pyridyl]sulfinyl}acetate], 158.8 to 159.1 °C; to `O=C(O)C[S+]([O-])c1cccc(-c2nc(=O)c3ccccc3s2)n1` (stereo not shown) [Example 279, [6-(4-Oxo-4H-1,3-benzothiazin-2-yl)-2-pyridyl]sulfinylacetic acid], 186.5 to 188 °C.

The compound `CCOC(=O)CCCCCOc1ccc(-c2nc(=O)c3ccccc3s2)cn1` [Example 96, Ethyl 6-{[5-(4-oxo-4H-1,3-benzothiazin-2-yl)-2-pyridyl]oxy}hexanoate] showed a melting point of 73.6 to 73.9 °C. To `O=c1nc(-c2ccc(N3CCCCC3)nc2)sc2ccccc12` [Example 34, 2-[6-(1-Piperidino)-3-pyridyl]-4H-1,3-benzothiazine-4-one] belongs 191.2 to 191.7 °C. To `N#Cc1nc(-c2nc(=O)c3ccccc3s2)ccc1CCC(=O)O` [Example 340, 3-[2-Cyano-6-(4-oxo-4H-1,3-benzothiazin-2-yl)-3-pyridyl]propanoate] belongs 283.8 °C (dec.); to `O=c1nc(-c2cccc(CCc3nnn[nH]3)n2)sc2ccccc12` [Example 305, 2-{6-[2-(1H-1,2,3,4-tetrazol-5-yl)ethyl]-2-pyridyl}-4H-1,3-benzothiazine-4-one], 156.6 to 157 °C. As for `O=c1nc(-c2ccnc(N3CCN(c4ccc(F)cc4)CC3)c2)sc2ccccc12` [Example 74, 2-{2-[4-(4-Fluorophenyl)-1-piperazinyl]-4-pyridyl}-4H-1,3-benzothiazine-4-one], the figure is 233 to 233.6 °C; as for `O=C(O)CCc1ccnc(-c2nc(=O)c3ccc(F)cc3s2)c1` [Example 186, 3-[2-(7-Fluoro-4-oxo-4H-1,3-benzothiazin-2-yl)-4-pyridyl]propionic acid], 240 °C (dec.). In turn, `O=c1nc(-c2ccc3ccccc3n2)sc2ccccc12` [Example 3, 2-(2-Quinolinyl)-4H-1,3-benzothiazine-4-one] came in with a melting point of 262.7 to 263.4 °C.

`O=C(O)c1ccc2c(=O)nc(-c3ccccn3)sc2c1` [Example 135, 4-Oxo-2-(2-pyridyl)-4H-1,3-benzothiazine-7-carboxylic acid] showed a melting point of 294.7 to 295.1 °C. As for `O=c1nc(-c2ccnc(OCc3ccccc3)c2)sc2ccccc12` [Example 69, 2-(2-Benzyloxy-4-pyridyl)-4H-1,3-benzothiazine-4-one], the figure is 116 to 116.5 °C; as for `N#Cc1ccnc(-c2nc(=O)c3ccccc3s2)c1` [Example 143, 2-(4-Cyano-2-pyridyl)-4H-1,3-benzothiazine-4-one], 283.4 to 283.6 °C. As for `COc1cc2sc(-c3ccccn3)nc(=O)c2cc1OC` [Example 14, 6,7-Dimethoxy-2-(2-pyridyl)-4H-1,3-benzothiazine-4-one], the figure is 236.3 to 237.5 °C; as for `O=C(NCc1cccc(-c2nc(=O)c3ccccc3s2)n1)C(F)(F)F` [Example 209, 2,2,2-Trifluoro-N-[[6-(4-oxo-4H-1,3-benzothiazin-2-yl)-2-pyridyl]methyl]acetamide], 226.4 to 227.4 °C. To `NCCc1ccnc(-c2nc(=O)c3ccccc3s2)c1` (as salt: trifluoroacetic acid salt) [Example 221, 2-[4-(2-Aminoethyl)-2-pyridyl]-4H-1,3-benzothiazine-4-one trifluoroacetic acid salt] belongs 209 to 210.7 °C; to `O=C(O)CCCCCOc1ccc2sc(-c3ccccn3)nc(=O)c2c1` [Example 125, 6-[[4-Oxo-2-(2-pyridyl)-4H-1,3-benzothiazin-6-yl]oxy]hexanoic acid], 205.4 to 206.3 °C.

`O=c1nc(-c2ccco2)sc2ccccc12` [Example 1, 2-(2-Furyl)-4H-1,3-benzothiazine-4-one] registered a melting point of 170 to 171.5 °C. To `O=C(O)CCc1ccnc(-c2nc(=O)c3ccccc3s2)c1` [Example 308, 3-[2-(4-Oxo-4H-1,3-benzothiazin-2-yl)-4-pyridyl]propionic acid] belongs 215.3 to 215.9 °C; to `NC(=O)CSc1cccc(-c2nc(=O)c3ccccc3s2)n1` [Example 282], 256.7 to 257 °C; to `COC(=O)C[S+]([O-])Cc1cccc(-c2nc(=O)c3ccccc3s2)n1` (stereo not shown) [Example 259, Methyl ({[6-(4-oxo-4H-1,3-benzothiazin-2-yl)-2-pyridyl]methyl}sulfinyl)acetate], 149.5 to 151 °C.

For `CSc1nccc(-c2nc(=O)c3ccccc3s2)n1` [Example 284, 2-[2-(Methylthio)-6-pyrimidinyl]-4H-1,3-benzothiazine-4-one], the melting point fell in the range of 223.5 to 224 °C. As for `O=c1nc(-c2cccc(CN3CCOCC3)n2)sc2ccccc12` [Example 170, 2-[6-(4-Morpholinomethyl)-2-pyridyl]-4H-1,3-benzothiazine-4-one], the melting point was 191.8 °C (dec.). To `O=c1nc(-c2cccc(CS(=O)(=O)Cc3ccccc3)n2)sc2ccccc12` [Example 257, 2-[6-[(Benzylsulfonyl)methyl]-2-pyridyl]-4H-1,3-benzothiazine-4-one] belongs 246 to 248 °C; to `Cc1ccnc(-c2nc(=O)c3ccccc3s2)c1` [Example 138, 2-(4-Methyl-2-pyridyl)-4H-1,3-benzothiazine-4-one], 199.7 to 199.9 °C; to `CC(C)(C)OC(=O)CCOCCc1cccc(-c2nc(=O)c3ccccc3s2)n1` [Example 334, tert-Butyl 3-[2-(6-(4-oxo-4H-1,3-benzothiazin-2-yl)-2-pyridyl)ethoxy]propanoate], 67.7 to 68.5 °C.

Turning to `CSCc1cccc(-c2nc(=O)c3ccccc3s2)n1` [Example 167, 2-(6-Methylthiomethyl-2-pyridyl)-4H-1,3-benzothiazine-4-one], the melting point lay within 151.5 to 153 °C.
